From patent US20220330549A1, “USE OF N-BENZYLBENZAMIDE-BASED COMPOUND AS HERBICIDE” (Northwest A&F University, priority 2020, published 2022)

How the values were obtained:
Format in all cases: in vivo
Humulus scandens = assay: Herbicidal activity test for indoor pre-emergence soil treatment; conditions: 150 g a.i./ha, visual inspection 21 days after treatment
Method: (§1) The herbicidal activity test for indoor pre-emergence soil treatment was performed with some of the N-benzylbenzamide-based compounds of general formula I or II with reference to the method of NY/T 1155.3-2006. Neutral sandy loam soil having an organic content of ≤2% was added to fill ⅘ of the pot, and the soil was completely moistened by infiltrating irrigation from the bottom of the pot. The seeds of the test weed were evenly spread on the soil surface, and then covered by 0.5 cm to 2.0 cm of soil depending on the seed size. Representative compounds in the examples were used to prepare emulsifiable concentrates (10%), and spray treatments to the soil were performed 24 hours after the sowing with the test agents diluted with water, at a spraying dosage of 150 g(a.i.)/ha. Then, the results were investigated by visual inspection 21 days after the treatments. The herbicidal activity of the agent was evaluated on a scale of 1-9 levels according to the symptoms and severity of damage to the test weeds.
(§2) Level 2: equivalent to 0 to 2.5% of the weed in the blank control area;
(§3) Level 3: equivalent to 2.6 to 5% of the weed in the blank control area;
(§4) Level 4: equivalent to 5.1 to 10% of the weed in the blank control area;
(§5) Level 5: equivalent to 10.1 to 15% of the weed in the blank control area;
(§6) Level 6: equivalent to 15.1 to 25% of the weed in the blank control area;
(§7) Level 7: equivalent to 25.1 to 35% of the weed in the blank control area;
(§8) Level 8: equivalent to 35.1 to 67.5% of the weed in the blank control area; and
(§9) Level 9: equivalent to 67.6 to 100% of the weed in the blank control area.

Digitaria sanguinalis = assay: as above; parameters: key: 1-9 levels; higher = more weed remaining vs blank control; conditions: 150 g a.i./ha, visual inspection 21 days after treatment
Method: as §1, §2, §3, §4, §5, §6, §7, §8, §9

Amaranthus retroflexus = assay: as above; parameters: key: 1-9 levels; higher = more weed remaining vs blank control; conditions: 150 g a.i./ha, visual inspection 21 days after treatment
Method: as §1, §2, §3, §4, §5, §6, §7, §8, §9

Piemarker = assay: as above; parameters: key: level 1-9; higher = more weed remaining vs blank control; conditions: 150 g a.i./ha, visual inspection 21 days after treatment
Method: as §1, §2, §3, §4, §5, §6, §7, §8, §9

green bristlegrass = assay: as above; parameters: key: level 1-9; higher = more weed remaining vs blank control; conditions: 150 g a.i./ha, visual inspection 21 days after treatment
Method: as §1, §2, §3, §4, §5, §6, §7, §8, §9

Barnyard grass = assay: as above; parameters: key: level 1-9; higher = more weed remaining vs blank control; conditions: 150 g a.i./ha, visual inspection 21 days after treatment
Method: as §1, §2, §3, §4, §5, §6, §7, §8, §9

Gramineae = assay: Post-emergence herbicidal activity test in a paddy field; parameters: key: level scale; higher level = more weed left vs blank control; conditions: 150 g a.i./ha (penoxsulam control 250 g(a.i.)/h)
Method: (§10) The post-emergence herbicidal activity test was performed in a paddy field with some of the N-benzylbenzamide-based compounds of general formula I or II with reference to the method of GB/T 17980.40-2000. […] Spray treatments were performed in the stage where 4 leaves to 5 leaves were grown for the rice seedlings which was about 1 month after the sowing. Representative compounds in the examples were used to prepare emulsifiable concentrates (10%), and spray treatments were performed with the concentrates in water at a dosage of 150 g(a.i.)/ha, and repeated 4 times for each treatment, and the area was 50 m^2. 25 g/L of penoxsulam suspension was used as a control agent and applied at a dosage of 250 g(a.i.)/h. The results were investigated by a value estimating survey method 15 days and 30 days after the treatments. The relative weed population quantities were estimated by comparing each agent treated area with an adjacent blank control area, and the results of which were investigated with the following grading standard method using the overall coverage of the weed population as an indicator.
as §2, §3, §4, §5, §6, §7, §8, §9

Cyperaceae = assay: as above; parameters: key: level scale; higher level = more weed left vs blank control; conditions: 150 g a.i./ha (penoxsulam control 250 g(a.i.)/h)
Method: as §10, §2, §3, §4, §5, §6, §7, §8, §9

Broadleaf weed = assay: as above; parameters: key: level scale; higher level = more weed left vs blank control; conditions: 150 g a.i./ha (penoxsulam control 250 g(a.i.)/h)
Method: as §10, §2, §3, §4, §5, §6, §7, §8, §9

| SMILES | Herbicidal Activity Humulus scandens (Humulus scandens) | Herbicidal Activity Digitaria sanguinalis (Digitaria sanguinalis) | Herbicidal Activity Amaranthus retroflexus (Amaranthus retroflexus) | Herbicidal Activity Piemarker (Piemarker) | Herbicidal Activity Green bristlegrass (green bristlegrass) | Herbicidal Activity Barnyard grass (Barnyard grass) | Herbicidal activity 15 days after treatment Gramineae (Gramineae; 15 days after treatment) | Herbicidal activity 30 days after treatment Gramineae (Gramineae; 30 days after treatment) | Herbicidal activity 15 days after treatment Cyperaceae (Cyperaceae; 15 days after treatment) | Herbicidal activity 30 days after treatment Cyperaceae (Cyperaceae; 30 days after treatment) | Herbicidal activity 15 days after treatment Broadleaf weed (Broadleaf weed; 15 days after treatment) | Herbicidal activity 30 days after treatment Broadleaf weed (Broadleaf weed; 30 days after treatment) |
| --- | --- | --- | --- | --- | --- | --- | --- | --- | --- | --- | --- | --- |
| CS(=O)(=O)c1cc(C(F)(F)F)ccc1C(=O)c1cnoc1C1CC1 [Isoxaflutole, reference compound] | 1 | 1 | 1 | 1 | 1 | 1 | – | – | – | – | – | – |
| COc1cnc(OC)n2nc(NS(=O)(=O)c3c(OCC(F)F)cccc3C(F)(F)F)nc12 [Penoxsulam, reference compound] | – | – | – | – | – | – | 2 (equivalent to 0 to 2.5% of the weed in the blank control area) | 1 | 2 (equivalent to 0 to 2.5% of the weed in the blank control area) | 2 (equivalent to 0 to 2.5% of the weed in the blank control area) | 2 (equivalent to 0 to 2.5% of the weed in the blank control area) | 1 |
